Results published in ChEMBL document CHEMBL6103549, “PRMT7 in cancer: Structure, effects, and therapeutic potentials” (Eur J Med Chem, 2025).
Blank lines part the entries; values can stand above or below the molecule they belong to.

Experiments:
[1] = target: T1, Protein arginine N-methyltransferase 7 (Homo sapiens, UniProt Q9NVM4); experiment: Inhibition of human recombinant His-tagged PRMT7 extracted from Escherichia coli BL21 (DE3)
T1 sequence (Q9NVM4 whole entry): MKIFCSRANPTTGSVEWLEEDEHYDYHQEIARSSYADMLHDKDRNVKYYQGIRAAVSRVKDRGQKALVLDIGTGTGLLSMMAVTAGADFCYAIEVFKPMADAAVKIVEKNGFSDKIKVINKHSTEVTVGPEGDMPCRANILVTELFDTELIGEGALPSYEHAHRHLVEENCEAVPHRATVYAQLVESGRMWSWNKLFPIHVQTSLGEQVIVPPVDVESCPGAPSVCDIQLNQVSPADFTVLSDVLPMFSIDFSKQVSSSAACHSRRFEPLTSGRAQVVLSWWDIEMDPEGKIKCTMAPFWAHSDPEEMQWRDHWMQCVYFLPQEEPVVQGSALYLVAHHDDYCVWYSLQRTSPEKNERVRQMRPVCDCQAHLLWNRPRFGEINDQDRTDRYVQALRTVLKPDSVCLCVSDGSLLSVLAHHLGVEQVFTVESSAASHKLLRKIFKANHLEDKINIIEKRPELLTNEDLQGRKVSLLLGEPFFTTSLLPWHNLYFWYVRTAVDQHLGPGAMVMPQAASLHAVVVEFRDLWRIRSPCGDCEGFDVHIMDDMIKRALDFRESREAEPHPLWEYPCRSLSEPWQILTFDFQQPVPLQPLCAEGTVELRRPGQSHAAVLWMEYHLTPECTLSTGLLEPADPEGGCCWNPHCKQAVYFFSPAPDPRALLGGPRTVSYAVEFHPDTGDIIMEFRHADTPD

[2] = target: T1, Protein arginine N-methyltransferase 7; experiment: Inhibition of human PRMT7 in HEK293T cells assessed as reduction in HSP70 methylation; assay type: cell-based
[3] = system: KB; experiment: Antiproliferative activity against human KB cells assessed as reduction in cell viability by MTT assay; assay type: functional, cell-based
[4] = Antiproliferative activity against human MEF cells assessed as reduction in cell viability by MTT assay; assay type: functional, cell-based
[5] = target: T1, Protein arginine N-methyltransferase 7; experiment: Inhibition of human PRMT7 in HCT-116 cells assessed as reduction in HSP70 methylation; assay type: cell-based
[6] = system: MCF7; experiment: Antiproliferative activity against human MCF7 cells assessed as reduction in cell viability by MTT assay; assay type: functional, cell-based
[7] = system: HepG2; experiment: Antiproliferative activity against human HepG2 cells assessed as reduction in cell viability by MTT assay; assay type: functional, cell-based
[8] = target: T1, Protein arginine N-methyltransferase 7; experiment: Inhibition of full length human recombinant PRMT7 extracted from Sf9 cells using […] as substrate incubated for 1 hr by TopCount scintillation proximity assay; assay type: cell-free
[9] = target: Protein arginine N-methyltransferase 5 (Homo sapiens, UniProt O14744); experiment: Inhibition of human PRMT5
[10] = target: T1, Protein arginine N-methyltransferase 7; experiment: Inhibition of human PRMT7

Protein arginine N-methyltransferase 5, sequence (O14744 whole entry): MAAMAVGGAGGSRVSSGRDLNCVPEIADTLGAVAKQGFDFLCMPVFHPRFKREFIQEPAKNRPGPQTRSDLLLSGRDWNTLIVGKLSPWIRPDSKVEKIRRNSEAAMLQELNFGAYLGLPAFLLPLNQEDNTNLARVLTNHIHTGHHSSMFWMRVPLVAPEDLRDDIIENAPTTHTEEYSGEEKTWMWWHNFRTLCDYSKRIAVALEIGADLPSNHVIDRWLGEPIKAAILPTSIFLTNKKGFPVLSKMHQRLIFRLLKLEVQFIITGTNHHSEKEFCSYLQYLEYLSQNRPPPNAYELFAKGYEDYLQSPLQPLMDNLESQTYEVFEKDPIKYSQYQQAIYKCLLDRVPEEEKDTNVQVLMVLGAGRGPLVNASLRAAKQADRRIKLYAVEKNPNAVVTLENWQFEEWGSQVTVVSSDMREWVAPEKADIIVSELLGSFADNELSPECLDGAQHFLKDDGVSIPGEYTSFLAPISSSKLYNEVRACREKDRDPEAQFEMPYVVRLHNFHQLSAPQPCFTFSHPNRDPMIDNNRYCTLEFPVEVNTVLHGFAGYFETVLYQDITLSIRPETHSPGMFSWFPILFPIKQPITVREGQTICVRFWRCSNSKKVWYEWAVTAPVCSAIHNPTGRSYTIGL

- IC50 [1]: 23.3 µM
SMILES: C/N=C(\N)N/N=C(\C)c1ccc2oc3ccc(/C(C)=N/N/C(N)=N/C)cc3c2c1

- IC50 [2]: 2.4 µM
- IC50 [3]: 2.2 µM
- IC50 [5]: 2.4 µM
- IC50 [6]: 2.2 µM
- IC50 [7]: 2.2 µM
SMILES: CC1=C(C)C(=O)C(C(C)(C)CC(=O)N(CCCCSC[C@H]2O[C@@H](n3cnc4c(N)ncnc43)[C@H](O)[C@@H]2O)Cc2cccc(-c3ccc(Cl)cc3)c2)=C(C)C1=O
- IC50 [4]: 28.4 µM

- IC50 [8]: 2.5 µM
SMILES: Nc1ncnc2c1ncn2[C@@H]1O[C@H](CSCCCCNCc2cccc(-c3ccc(Cl)cc3)c2)[C@@H](O)[C@H]1O

- IC50 [9]: 50 µM
- IC50 [10]: 5 µM
SMILES: COc1cc(-c2ncc(F)c(Nc3ccc4nc(C)cc(N)c4c3)n2)cc(OC)c1OC
